Assay results taken from the kinase profiling compilation of Christmann-Franck et al. (2016).

Tests used:
Test in all cases: KINOMEscan competition binding
Conditions in all cases: compound 10.0 µM
LCK (human) = LCK (human) (UniProt P06239)
SIK1 (human) = SIK1 (human) (UniProt P57059)
[1] = tested on: LRRK2 (human), Q5S007 [G2019S]
GAK (human) = GAK (human) (UniProt O14976)
IRAK1 (human) = IRAK1 (human) (UniProt P51617)
CDK18 (human) = CDK18 (human) (UniProt Q07002)
MAP3K5 (human) = MAP3K5 (human) (UniProt Q99683)
CAMK2G (human) = CAMK2G (human) (UniProt Q13555)
PRKAA1 (human) = PRKAA1 (human) (UniProt Q13131)
CDC42BPG (human) = CDC42BPG (human) (UniProt Q6DT37)
CDKL2 (human) = CDKL2 (human) (UniProt Q92772)
RET (human) = RET (human) (UniProt P07949)
MAP3K4 (human) = MAP3K4 (human) (UniProt Q9Y6R4)
PKN3 (M.tuberculosis) = PKN3 (M.tuberculosis) (UniProt Q6P5Z2)
KIT (human) = KIT (human) (UniProt P10721)
PKN2 (human) = PKN2 (human) (UniProt Q16513)
PDGFRB (human) = PDGFRB (human) (UniProt P09619)
[2] = tested on: FGFR3 (human), P22607 [G697C]
FGFR2 (human) = FGFR2 (human) (UniProt P21802)
MYLK2 (human) = MYLK2 (human) (UniProt Q9H1R3)
PIP5K1C (human) = PIP5K1C (human) (UniProt O60331)
MAPK6 (human) = MAPK6 (human) (UniProt Q16659)
EPHB4 (human) = EPHB4 (human) (UniProt P54760)
PKMYT1 (human) = PKMYT1 (human) (UniProt Q99640)
PRKCH (human) = PRKCH (human) (UniProt P24723)
CDK13 (human) = CDK13 (human) (UniProt Q14004)
TNK2 (human) = TNK2 (human) (UniProt Q07912)
STK10 (human) = STK10 (human) (UniProt O94804)
TEC (human) = TEC (human) (UniProt P42680)
MAP4K5 (human) = MAP4K5 (human) (UniProt Q9Y4K4)
ANKK1 (human) = ANKK1 (human) (UniProt Q8NFD2)
NEK9 (human) = NEK9 (human) (UniProt Q8TD19)
RPS6KA6 KD2 (human) = RPS6KA6 KD2 (human) (UniProt Q9UK32)
ROCK2 (human) = ROCK2 (human) (UniProt O75116)
PRKD3 (human) = PRKD3 (human) (UniProt O94806)
FGFR3 (human) = FGFR3 (human) (UniProt P22607)
PAK1 (human) = PAK1 (human) (UniProt Q13153)
TTK (human) = TTK (human) (UniProt P33981)
STK25 (human) = STK25 (human) (UniProt O00506)
SIK2 (human) = SIK2 (human) (UniProt Q9H0K1)
BMPR1A (human) = BMPR1A (human) (UniProt P36894)

TEC (human), sequence (P42680 whole entry, looked up): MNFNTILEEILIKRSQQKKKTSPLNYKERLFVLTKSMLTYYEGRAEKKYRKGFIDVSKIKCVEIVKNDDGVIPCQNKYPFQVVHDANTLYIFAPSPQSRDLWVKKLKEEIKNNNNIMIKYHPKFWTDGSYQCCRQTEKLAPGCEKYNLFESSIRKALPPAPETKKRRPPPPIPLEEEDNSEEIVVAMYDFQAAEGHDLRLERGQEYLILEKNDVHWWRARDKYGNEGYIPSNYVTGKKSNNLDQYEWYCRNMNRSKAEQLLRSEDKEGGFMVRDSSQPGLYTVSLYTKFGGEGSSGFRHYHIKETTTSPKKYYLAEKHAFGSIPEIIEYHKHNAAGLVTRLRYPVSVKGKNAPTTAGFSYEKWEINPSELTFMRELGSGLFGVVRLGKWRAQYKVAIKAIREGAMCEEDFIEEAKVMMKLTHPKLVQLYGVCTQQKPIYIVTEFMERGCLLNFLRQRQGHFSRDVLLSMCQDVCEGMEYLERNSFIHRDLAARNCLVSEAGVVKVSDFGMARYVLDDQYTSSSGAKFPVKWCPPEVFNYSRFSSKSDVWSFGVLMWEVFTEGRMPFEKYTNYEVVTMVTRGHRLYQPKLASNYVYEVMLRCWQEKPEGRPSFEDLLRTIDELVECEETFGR
CDKL2 (human), sequence (Q92772 whole entry, looked up): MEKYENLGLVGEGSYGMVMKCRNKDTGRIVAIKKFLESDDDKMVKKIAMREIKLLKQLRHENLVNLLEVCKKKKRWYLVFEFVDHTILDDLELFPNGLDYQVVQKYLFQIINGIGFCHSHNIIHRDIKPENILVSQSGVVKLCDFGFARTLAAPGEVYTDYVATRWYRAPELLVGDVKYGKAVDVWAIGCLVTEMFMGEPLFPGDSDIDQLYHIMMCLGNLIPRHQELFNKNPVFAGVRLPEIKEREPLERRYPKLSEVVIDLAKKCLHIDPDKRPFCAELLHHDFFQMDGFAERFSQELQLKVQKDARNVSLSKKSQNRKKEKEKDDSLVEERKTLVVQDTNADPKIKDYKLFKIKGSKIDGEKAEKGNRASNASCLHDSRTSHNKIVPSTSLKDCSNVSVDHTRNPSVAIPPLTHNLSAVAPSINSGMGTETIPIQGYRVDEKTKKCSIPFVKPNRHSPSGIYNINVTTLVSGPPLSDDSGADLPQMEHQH
STK25 (human), sequence (O00506 whole entry, looked up): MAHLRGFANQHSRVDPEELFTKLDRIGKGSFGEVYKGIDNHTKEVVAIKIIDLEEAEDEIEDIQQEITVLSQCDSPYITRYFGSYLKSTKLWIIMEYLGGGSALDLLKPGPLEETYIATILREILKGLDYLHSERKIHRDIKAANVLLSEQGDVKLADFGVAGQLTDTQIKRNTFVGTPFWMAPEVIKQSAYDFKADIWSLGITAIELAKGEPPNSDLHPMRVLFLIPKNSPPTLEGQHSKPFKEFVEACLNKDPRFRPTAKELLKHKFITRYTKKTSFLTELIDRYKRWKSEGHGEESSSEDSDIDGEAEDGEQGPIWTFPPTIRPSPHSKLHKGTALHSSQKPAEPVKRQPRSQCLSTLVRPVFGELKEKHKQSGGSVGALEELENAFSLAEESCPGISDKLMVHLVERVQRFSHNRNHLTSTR
TTK (human), sequence (P33981 whole entry, looked up): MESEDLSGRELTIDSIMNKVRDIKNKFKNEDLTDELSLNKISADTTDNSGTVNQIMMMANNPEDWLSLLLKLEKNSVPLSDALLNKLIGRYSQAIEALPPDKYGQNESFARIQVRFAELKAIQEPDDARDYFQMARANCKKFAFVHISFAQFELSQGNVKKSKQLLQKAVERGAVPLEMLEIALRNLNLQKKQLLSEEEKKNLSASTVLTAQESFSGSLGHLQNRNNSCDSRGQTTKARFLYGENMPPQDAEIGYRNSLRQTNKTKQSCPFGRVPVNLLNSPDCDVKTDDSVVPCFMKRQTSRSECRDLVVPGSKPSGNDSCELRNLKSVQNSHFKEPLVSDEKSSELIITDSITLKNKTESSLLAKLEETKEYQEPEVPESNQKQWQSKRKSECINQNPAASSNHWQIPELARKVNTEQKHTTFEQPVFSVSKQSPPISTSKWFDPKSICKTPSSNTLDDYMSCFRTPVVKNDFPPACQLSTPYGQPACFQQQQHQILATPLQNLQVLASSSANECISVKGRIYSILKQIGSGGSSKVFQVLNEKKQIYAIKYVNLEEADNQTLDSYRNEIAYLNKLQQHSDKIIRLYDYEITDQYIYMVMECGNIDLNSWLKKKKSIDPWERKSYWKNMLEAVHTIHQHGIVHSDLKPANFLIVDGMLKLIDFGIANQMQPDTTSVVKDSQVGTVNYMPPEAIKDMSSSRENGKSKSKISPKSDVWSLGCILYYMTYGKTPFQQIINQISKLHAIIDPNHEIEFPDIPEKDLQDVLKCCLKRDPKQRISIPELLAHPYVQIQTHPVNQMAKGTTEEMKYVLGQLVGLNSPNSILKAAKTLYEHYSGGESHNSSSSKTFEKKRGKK
CDC42BPG (human), sequence (Q6DT37 whole entry, looked up): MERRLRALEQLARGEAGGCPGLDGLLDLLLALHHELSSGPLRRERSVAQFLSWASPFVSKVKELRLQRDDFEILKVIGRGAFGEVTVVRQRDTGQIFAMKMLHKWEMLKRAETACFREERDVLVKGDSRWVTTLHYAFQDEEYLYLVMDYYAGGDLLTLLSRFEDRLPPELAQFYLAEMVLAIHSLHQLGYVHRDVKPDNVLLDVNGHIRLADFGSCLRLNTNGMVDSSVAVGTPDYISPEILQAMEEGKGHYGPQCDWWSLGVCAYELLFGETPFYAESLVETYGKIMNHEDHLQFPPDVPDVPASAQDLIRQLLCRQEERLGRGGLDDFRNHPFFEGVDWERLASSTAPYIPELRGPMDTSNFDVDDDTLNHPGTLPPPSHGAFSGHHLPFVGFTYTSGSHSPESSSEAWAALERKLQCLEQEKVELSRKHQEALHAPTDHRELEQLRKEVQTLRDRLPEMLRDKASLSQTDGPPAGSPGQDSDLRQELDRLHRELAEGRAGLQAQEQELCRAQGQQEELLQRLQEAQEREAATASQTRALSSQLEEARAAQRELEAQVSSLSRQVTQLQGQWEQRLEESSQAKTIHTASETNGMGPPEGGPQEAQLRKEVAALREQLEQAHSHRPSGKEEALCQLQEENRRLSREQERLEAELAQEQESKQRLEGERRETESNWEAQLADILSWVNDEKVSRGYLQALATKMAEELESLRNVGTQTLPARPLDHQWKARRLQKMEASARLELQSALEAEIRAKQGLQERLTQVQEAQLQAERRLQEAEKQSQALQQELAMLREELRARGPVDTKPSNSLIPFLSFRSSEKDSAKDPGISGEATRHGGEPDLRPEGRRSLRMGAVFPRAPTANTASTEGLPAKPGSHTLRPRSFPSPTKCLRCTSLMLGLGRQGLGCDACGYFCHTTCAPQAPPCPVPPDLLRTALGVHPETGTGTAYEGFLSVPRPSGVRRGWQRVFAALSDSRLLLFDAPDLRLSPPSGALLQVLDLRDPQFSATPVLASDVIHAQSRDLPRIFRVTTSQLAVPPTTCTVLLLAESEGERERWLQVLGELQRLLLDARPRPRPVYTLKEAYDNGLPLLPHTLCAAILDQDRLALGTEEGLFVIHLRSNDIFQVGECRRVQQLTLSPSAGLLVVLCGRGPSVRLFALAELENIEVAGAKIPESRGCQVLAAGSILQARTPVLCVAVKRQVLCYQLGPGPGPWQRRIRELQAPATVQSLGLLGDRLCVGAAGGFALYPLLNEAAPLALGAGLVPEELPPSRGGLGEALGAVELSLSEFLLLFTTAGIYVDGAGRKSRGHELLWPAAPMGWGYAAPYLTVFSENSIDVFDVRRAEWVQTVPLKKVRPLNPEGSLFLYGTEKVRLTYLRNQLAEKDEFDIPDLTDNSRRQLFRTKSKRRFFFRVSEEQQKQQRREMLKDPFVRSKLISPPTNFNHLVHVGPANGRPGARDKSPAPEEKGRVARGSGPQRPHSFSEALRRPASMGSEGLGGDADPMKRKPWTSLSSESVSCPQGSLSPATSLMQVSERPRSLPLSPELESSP
KIT (human), sequence (P10721 whole entry, looked up): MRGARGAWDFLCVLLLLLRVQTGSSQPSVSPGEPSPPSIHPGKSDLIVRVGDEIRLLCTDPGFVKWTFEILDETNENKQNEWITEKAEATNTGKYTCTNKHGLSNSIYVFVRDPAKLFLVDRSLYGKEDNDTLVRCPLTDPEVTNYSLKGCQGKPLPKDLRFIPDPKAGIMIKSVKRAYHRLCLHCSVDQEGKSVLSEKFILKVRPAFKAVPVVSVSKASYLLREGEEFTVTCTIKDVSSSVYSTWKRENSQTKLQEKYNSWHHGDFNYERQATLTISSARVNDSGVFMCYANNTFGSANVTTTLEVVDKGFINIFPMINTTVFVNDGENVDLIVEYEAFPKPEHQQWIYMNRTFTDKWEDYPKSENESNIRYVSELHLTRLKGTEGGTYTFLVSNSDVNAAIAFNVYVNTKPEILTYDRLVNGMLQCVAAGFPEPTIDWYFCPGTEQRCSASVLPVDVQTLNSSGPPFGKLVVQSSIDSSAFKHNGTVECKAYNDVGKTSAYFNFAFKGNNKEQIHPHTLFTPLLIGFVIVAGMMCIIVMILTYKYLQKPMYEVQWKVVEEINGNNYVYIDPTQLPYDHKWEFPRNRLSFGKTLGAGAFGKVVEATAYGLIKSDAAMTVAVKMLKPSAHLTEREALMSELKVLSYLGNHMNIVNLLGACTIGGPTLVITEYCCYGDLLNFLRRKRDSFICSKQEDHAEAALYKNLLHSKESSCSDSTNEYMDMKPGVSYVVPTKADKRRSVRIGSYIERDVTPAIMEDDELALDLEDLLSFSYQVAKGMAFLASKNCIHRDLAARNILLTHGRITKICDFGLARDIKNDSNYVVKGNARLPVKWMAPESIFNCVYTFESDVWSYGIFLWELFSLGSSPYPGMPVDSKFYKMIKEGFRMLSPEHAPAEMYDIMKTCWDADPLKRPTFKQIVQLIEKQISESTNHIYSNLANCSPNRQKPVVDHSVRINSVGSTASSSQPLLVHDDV

**Q.** `COc1ccc(-c2ccc3c(N4CCOCC4)nc(N4C[C@@H](C)O[C@@H](C)C4)nc3n2)cc1CO` was tested. Which kinase still bound, per cent of control (LCK (human)) did it give?
**A.** Its kinase still bound, per cent of control is 98%.

**Q.** What about the kinase still bound, per cent of control (SIK1 (human)) of the same compound?
**A.** The kinase still bound, per cent of control was 90%.

**Q.** And the kinase still bound, per cent of control [1]?
**A.** The kinase still bound, per cent of control was 100%.

**Q.** And the kinase still bound, per cent of control (GAK (human))?
**A.** Its kinase still bound, per cent of control is 95%.

**Q.** And the kinase still bound, per cent of control (IRAK1 (human))?
**A.** Its kinase still bound, per cent of control is 100%.

**Q.** What about the per cent of control (CDK18 (human)) of the same compound?
**A.** Its per cent of control is 100%.

**Q.** And the kinase still bound, per cent of control (MAP3K5 (human))?
**A.** Its kinase still bound, per cent of control is 97%.

**Q.** What about the kinase still bound, per cent of control (CAMK2G (human)) of the same compound?
**A.** Its kinase still bound, per cent of control is 87%.

**Q.** And the kinase still bound, per cent of control (PRKAA1 (human))?
**A.** Its kinase still bound, per cent of control is 97%.

**Q.** And the kinase still bound, per cent of control (CDC42BPG (human))?
**A.** The kinase still bound, per cent of control was 65%.

**Q.** What about the per cent of control (CDKL2 (human)) of the same compound?
**A.** The per cent of control was 95%.

**Q.** What about the kinase still bound, per cent of control (RET (human)) of the same compound?
**A.** Its kinase still bound, per cent of control is 91%.

**Q.** And the kinase still bound, per cent of control (MAP3K4 (human))?
**A.** Its kinase still bound, per cent of control is 100%.

**Q.** What about the kinase still bound, per cent of control (PKN3 (M.tuberculosis)) of the same compound?
**A.** The kinase still bound, per cent of control was 100%.

**Q.** What about the kinase still bound, per cent of control (KIT (human)) of the same compound?
**A.** The kinase still bound, per cent of control was 87%.

**Q.** What about the kinase still bound, per cent of control (PKN2 (human)) of the same compound?
**A.** Its kinase still bound, per cent of control is 100%.

**Q.** What about the kinase still bound, per cent of control (PDGFRB (human)) of the same compound?
**A.** The kinase still bound, per cent of control was 95%.

**Q.** What about the kinase still bound, per cent of control [2] of the same compound?
**A.** The kinase still bound, per cent of control was 77%.

**Q.** What about the kinase still bound, per cent of control (FGFR2 (human)) of the same compound?
**A.** The kinase still bound, per cent of control was 99%.

**Q.** What about the kinase still bound, per cent of control (MYLK2 (human)) of the same compound?
**A.** The kinase still bound, per cent of control was 78%.

**Q.** And the kinase still bound, per cent of control (PIP5K1C (human))?
**A.** The kinase still bound, per cent of control was 100%.

**Q.** What about the kinase still bound, per cent of control (MAPK6 (human)) of the same compound?
**A.** The kinase still bound, per cent of control was 84%.

**Q.** And the kinase still bound, per cent of control (EPHB4 (human))?
**A.** The kinase still bound, per cent of control was 100%.

**Q.** What about the kinase still bound, per cent of control (PKMYT1 (human)) of the same compound?
**A.** The kinase still bound, per cent of control was 84%.

**Q.** And the kinase still bound, per cent of control (PRKCH (human))?
**A.** The kinase still bound, per cent of control was 100%.

**Q.** What about the per cent of control (CDK13 (human)) of the same compound?
**A.** Its per cent of control is 100%.

**Q.** And the kinase still bound, per cent of control (TNK2 (human))?
**A.** Its kinase still bound, per cent of control is 100%.

**Q.** What about the kinase still bound, per cent of control (STK10 (human)) of the same compound?
**A.** Its kinase still bound, per cent of control is 92%.

**Q.** And the kinase still bound, per cent of control (TEC (human))?
**A.** Its kinase still bound, per cent of control is 92%.

**Q.** What about the kinase still bound, per cent of control (MAP4K5 (human)) of the same compound?
**A.** Its kinase still bound, per cent of control is 96%.

**Q.** What about the kinase still bound, per cent of control (ANKK1 (human)) of the same compound?
**A.** Its kinase still bound, per cent of control is 98%.

**Q.** And the kinase still bound, per cent of control (NEK9 (human))?
**A.** Its kinase still bound, per cent of control is 89%.

**Q.** And the kinase still bound, per cent of control (RPS6KA6 KD2 (human))?
**A.** The kinase still bound, per cent of control was 93%.

**Q.** And the kinase still bound, per cent of control (ROCK2 (human))?
**A.** The kinase still bound, per cent of control was 21%.

**Q.** What about the kinase still bound, per cent of control (PRKD3 (human)) of the same compound?
**A.** The kinase still bound, per cent of control was 85%.

**Q.** And the kinase still bound, per cent of control (FGFR3 (human))?
**A.** The kinase still bound, per cent of control was 100%.

**Q.** What about the kinase still bound, per cent of control (PAK1 (human)) of the same compound?
**A.** Its kinase still bound, per cent of control is 84%.

**Q.** And the kinase still bound, per cent of control (TTK (human))?
**A.** Its kinase still bound, per cent of control is 95%.

**Q.** What about the kinase still bound, per cent of control (STK25 (human)) of the same compound?
**A.** Its kinase still bound, per cent of control is 100%.

**Q.** What about the kinase still bound, per cent of control (SIK2 (human)) of the same compound?
**A.** Its kinase still bound, per cent of control is 91%.

**Q.** What about the kinase still bound, per cent of control (BMPR1A (human)) of the same compound?
**A.** The kinase still bound, per cent of control was 70%.
